The test system of data set [1] is enterovirus-68 (EV-68). The data set is classed as cell-based.
Data set [2] relates to Zika virus. The following applies: nucleoside applied to cells, phosphorylated to ddhCTP; cited from earlier work.
The subject of data set [3] is Zika virus. The class given is cell-based.
The nature of data set [4]: in vitro. As to conditions: human.
In data set [5] the test system is Influenza B. The data set is described as follows: microbe, parasite or virus in culture. The data set is classed as cell-based.
Data set [6] deals with Influenza A (H5N1). The data set is described as follows: microbe, parasite or virus in culture. The data set is classed as cell-based.
Data set [7] relates to RSV. Kind of data set: microbe, parasite or virus in culture. As to conditions: human respiratory syncytial virus, MA104. The data set is classed as cell-based.
Data set [8] relates to Rift Valley fever virus (RVFV). The data set is described as follows: microbe, parasite or virus in culture. The data set is classed as cell-based. As to conditions: Vero 76.
Data set [9] concerns Influenza A (H1N1). Kind of data set: microbe, parasite or virus in culture. The class given is cell-based.
Data set [10] is described as follows: in vitro. The following applies: African green monkey.

The values that follow come from patent US12419902B2, “Anti-viral and anti-tumoral compounds” (priority 2019, dated 2025).

Converted amounts (≈) assume the structure as drawn.

With `Nc1ccn([C@@H]2OC(CO)=C[C@H]2O)c(=O)n1` [AB21650, 3′-deoxy-3′,4′-didehydro cytidine], in data set [1], the “antiviral activity (in words)” value is given as “exhibits some activity”. Besides, in data set [2], the “replication of Zika virus” value is “directly inhibit replication of Zika virus”.

Compound `C#C[C@@]1(O)[C@H](O)[C@@H](CO)O[C@H]1n1ccc2c(N)ncnc21` [NITD008] came in with an EC50 in [3] of 1.8 µg/mL (≈ 6.2 µM).

Consider `CCOC(=O)c1ccc(OCCC2CCN(c3ccc(C)nn3)CC2)cc1` [Pirodavir], for which the CC50 in data set [4] was found to be 4.3 µg/mL (≈ 11.6 µM).

Regarding `NC(=O)c1ncn([C@@H]2O[C@H](CO)[C@@H](O)[C@H]2O)n1` [Ribavirin], the EC50 stood at 1.4 µg/mL (≈ 5.73 µM) in data set [5] (Influenza B virus, MDCK); 1.8 µg/mL (≈ 7.37 µM) in [6] (Influenza A virus, H5N1, MDCK); 7.3 µg/mL (≈ 29.9 µM) in [7]; 14 µg/mL (≈ 57.3 µM) in data set [8]; 4.6 µg/mL (≈ 18.8 µM) in data set [9] (Influenza A virus, H1N1, MDCK).

In turn, `CC(C)S(=O)(=O)n1c(N)nc2ccc(/C(=N/O)c3ccccc3)cc21` [Enviroxime] yielded a CC50 in data set [10] of 3.3 µg/mL (≈ 9.21 µM).

Consider `Nc1nc2c(ncn2[C@@H]2OC(CO)=CC2O)c(=O)[nH]1` (stereo partly drawn) [AB21651], for which the “antiviral activity (in words)” value in [6] and in [9] was “exhibits antiviral activity” throughout.

With `O=c1ccn([C@@H]2OC(CO)=C[C@H]2O)c(=O)[nH]1` [AB21649], the “antiviral activity (in words)” value in [5], in data set [6] and in data set [9] was “exhibits antiviral activity” throughout.
